Columns and labels:
[1] = target: Protein kinase C delta type (Homo sapiens) (UniProt Q05655); assay: Selectivity interaction (KinomeScan (DiscoverX)) EUB0000229b PRKCD; settings: at 10 µM
[2] = target: T1, Non-receptor tyrosine-protein kinase TNK1 (Homo sapiens) (UniProt Q13470); assay: Selectivity interaction (KinomeScan (DiscoverX)) EUB0000595a TNK1; settings: at 10 µM
T1 sequence (whole entry): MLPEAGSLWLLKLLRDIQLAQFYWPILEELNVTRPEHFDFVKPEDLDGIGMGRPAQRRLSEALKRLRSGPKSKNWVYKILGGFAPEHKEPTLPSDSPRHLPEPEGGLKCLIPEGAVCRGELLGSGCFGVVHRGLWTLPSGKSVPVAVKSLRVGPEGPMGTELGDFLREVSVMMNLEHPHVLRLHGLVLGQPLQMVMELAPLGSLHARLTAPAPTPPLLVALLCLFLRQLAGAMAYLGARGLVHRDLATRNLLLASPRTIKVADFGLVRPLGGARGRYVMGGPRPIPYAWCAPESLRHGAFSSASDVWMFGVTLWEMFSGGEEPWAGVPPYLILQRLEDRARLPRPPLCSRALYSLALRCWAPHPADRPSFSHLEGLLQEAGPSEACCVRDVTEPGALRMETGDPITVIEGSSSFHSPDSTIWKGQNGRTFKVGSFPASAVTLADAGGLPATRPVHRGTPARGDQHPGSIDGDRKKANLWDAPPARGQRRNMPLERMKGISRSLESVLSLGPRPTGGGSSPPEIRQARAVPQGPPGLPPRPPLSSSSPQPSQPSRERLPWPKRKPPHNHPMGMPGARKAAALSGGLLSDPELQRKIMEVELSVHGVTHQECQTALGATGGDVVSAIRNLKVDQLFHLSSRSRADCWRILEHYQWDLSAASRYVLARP

[3] = target: Serine/threonine-protein kinase MRCK alpha (Homo sapiens) (UniProt Q5VT25); assay: Selectivity interaction (KinomeScan (DiscoverX)) EUB0001079a CDC42BPA; settings: at 1 µM
[4] = target: Serine/threonine-protein kinase 38 (Homo sapiens) (UniProt Q15208); assay: Selectivity interaction (LanthaScreen Eu Kinase Binding Assay) EUB0001632a STK38; settings: at 10 µM
[5] = target: Homeodomain-interacting protein kinase 1 (Homo sapiens, UniProt Q86Z02); assay: Selectivity interaction (Kinase panel (Z-LYTE Assay)) EUB0001632a HIPK1; settings: at 10 µM
[6] = target: T2, Ephrin type-A receptor 3 (Homo sapiens) (UniProt P29320); assay: Selectivity interaction (LanthaScreen Eu Kinase Binding Assay) EUB0001632a EPHA3; settings: at 10 µM
T2 sequence (whole entry): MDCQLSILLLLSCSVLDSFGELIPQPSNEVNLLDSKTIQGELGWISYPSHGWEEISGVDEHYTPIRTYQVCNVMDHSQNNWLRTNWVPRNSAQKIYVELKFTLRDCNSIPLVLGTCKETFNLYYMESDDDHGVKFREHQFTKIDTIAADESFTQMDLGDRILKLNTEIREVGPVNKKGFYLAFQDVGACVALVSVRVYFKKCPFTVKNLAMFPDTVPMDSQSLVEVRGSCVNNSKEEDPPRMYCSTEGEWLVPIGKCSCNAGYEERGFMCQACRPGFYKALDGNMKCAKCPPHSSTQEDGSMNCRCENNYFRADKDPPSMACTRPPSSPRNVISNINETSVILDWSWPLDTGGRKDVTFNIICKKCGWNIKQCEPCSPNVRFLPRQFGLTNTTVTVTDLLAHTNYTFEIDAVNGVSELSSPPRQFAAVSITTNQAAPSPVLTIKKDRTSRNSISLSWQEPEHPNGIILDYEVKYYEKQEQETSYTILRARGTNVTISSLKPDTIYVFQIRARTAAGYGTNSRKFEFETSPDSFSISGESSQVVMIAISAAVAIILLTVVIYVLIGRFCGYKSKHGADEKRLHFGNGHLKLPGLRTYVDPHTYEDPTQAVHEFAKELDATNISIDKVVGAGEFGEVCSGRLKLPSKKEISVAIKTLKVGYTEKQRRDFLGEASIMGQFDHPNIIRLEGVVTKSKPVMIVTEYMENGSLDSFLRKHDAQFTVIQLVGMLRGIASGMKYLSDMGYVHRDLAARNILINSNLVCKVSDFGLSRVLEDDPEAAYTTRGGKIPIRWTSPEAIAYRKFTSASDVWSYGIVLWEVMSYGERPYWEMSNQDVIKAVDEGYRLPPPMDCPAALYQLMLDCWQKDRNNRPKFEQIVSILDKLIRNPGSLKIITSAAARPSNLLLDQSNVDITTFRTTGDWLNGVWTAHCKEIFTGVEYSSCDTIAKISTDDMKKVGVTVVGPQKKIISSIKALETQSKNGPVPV

[7] = tested on: Mast/stem cell growth factor receptor Kit (Homo sapiens), P10721 [D816H]; settings: at 10 µM
[8] = target: Cyclin-dependent kinase 13 (Homo sapiens, UniProt Q14004); assay: Selectivity interaction (KinomeScan (DiscoverX)) EUB0001049a CDK13; settings: at 1 µM
[9] = target: G protein-coupled receptor kinase 4 (Homo sapiens) (UniProt P32298); assay: Selectivity interaction (ProQinase) EUB0000171b GRK4
[10] = target: Serine/threonine-protein kinase PAK 6 (Homo sapiens) (UniProt Q9NQU5); assay: Selectivity interaction (KinomeScan (DiscoverX)) EUB0001619a PAK6; settings: at 1 µM
[11] = target: Ribosomal protein S6 kinase alpha-2 (Homo sapiens) (UniProt Q15349); assay: Selectivity interaction (KinomeScan (DiscoverX)) EUB0000607a RPS6KA2; settings: at 10 µM
[12] = target: MAP kinase-activated protein kinase 2 (Homo sapiens, UniProt P49137); assay: Selectivity interaction (KinomeScan (DiscoverX)) EUB0000618a MAPKAPK2; settings: at 10 µM
[13] = target: Serine/threonine-protein kinase 24 (Homo sapiens) (UniProt Q9Y6E0); assay: Selectivity interaction (ActivX KiNativ screen (kinase selectivity in THP-1 cell lysates)) EUB0000639a STK24; type: subcellular; settings: lysate
[14] = target: Phosphatidylinositol 4,5-bisphosphate 3-kinase catalytic subunit beta isoform (Homo sapiens) (UniProt P42338); assay: Selectivity interaction (ActivX KiNativ screen (kinase selectivity in THP-1 cell lysates)) EUB0000639a PIK3CB; type: subcellular; settings: lysate
[15] = tested on: Mast/stem cell growth factor receptor Kit (Homo sapiens), P10721 [D816V]; settings: at 10 µM
[16] = target: Casein kinase I isoform delta (Homo sapiens, UniProt P48730); assay: Selectivity interaction (Ambit KINOMEscan and KiNATiv profiling in Jurkat cells) EUB0000090b CSNK1D; type: cell-based; settings: at 1 µM
Sequence of Casein kinase I isoform delta (P48730 whole entry, looked up, canonical isoform): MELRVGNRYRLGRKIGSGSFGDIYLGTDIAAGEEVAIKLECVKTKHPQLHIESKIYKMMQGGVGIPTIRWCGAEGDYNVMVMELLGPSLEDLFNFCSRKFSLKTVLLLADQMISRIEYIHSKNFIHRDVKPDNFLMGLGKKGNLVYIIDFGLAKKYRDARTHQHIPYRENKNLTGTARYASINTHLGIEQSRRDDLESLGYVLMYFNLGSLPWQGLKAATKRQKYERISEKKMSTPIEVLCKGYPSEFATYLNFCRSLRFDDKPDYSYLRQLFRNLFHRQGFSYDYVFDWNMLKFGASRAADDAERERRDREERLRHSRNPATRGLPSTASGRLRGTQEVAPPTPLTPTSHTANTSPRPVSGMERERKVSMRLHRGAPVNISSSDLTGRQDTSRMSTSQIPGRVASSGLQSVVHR

Sequence of Phosphatidylinositol 4,5-bisphosphate 3-kinase catalytic subunit beta isoform (Homo sapiens) (P42338 whole entry, looked up, canonical isoform): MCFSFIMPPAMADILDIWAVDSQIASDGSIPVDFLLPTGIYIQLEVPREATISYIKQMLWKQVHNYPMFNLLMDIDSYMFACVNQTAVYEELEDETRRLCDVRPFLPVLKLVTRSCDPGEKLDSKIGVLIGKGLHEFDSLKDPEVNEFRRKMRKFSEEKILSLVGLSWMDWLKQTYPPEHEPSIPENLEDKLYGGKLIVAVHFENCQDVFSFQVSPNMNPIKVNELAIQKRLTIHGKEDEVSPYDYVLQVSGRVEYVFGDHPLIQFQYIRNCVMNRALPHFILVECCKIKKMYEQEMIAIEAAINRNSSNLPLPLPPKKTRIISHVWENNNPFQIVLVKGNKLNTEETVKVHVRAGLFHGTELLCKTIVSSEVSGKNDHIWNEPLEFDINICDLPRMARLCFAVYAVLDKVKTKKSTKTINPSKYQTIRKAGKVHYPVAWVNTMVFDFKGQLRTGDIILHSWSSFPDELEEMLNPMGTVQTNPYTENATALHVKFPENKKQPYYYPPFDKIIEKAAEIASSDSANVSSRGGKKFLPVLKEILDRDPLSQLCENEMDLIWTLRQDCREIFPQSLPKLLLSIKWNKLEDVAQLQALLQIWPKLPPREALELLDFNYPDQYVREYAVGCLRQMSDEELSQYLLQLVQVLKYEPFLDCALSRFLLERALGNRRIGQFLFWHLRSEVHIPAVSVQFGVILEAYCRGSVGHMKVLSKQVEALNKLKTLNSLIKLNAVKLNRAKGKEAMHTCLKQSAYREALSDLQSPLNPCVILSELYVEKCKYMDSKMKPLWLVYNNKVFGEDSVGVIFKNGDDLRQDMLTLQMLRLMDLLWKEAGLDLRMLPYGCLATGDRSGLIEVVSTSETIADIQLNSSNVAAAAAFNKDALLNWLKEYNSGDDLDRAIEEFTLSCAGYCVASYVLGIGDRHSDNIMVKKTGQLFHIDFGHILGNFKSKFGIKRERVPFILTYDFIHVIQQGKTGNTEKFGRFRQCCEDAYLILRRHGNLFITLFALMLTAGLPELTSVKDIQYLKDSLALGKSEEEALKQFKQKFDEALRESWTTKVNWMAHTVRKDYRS
Sequence of Serine/threonine-protein kinase 24 (Homo sapiens) (Q9Y6E0 whole entry, looked up, canonical isoform): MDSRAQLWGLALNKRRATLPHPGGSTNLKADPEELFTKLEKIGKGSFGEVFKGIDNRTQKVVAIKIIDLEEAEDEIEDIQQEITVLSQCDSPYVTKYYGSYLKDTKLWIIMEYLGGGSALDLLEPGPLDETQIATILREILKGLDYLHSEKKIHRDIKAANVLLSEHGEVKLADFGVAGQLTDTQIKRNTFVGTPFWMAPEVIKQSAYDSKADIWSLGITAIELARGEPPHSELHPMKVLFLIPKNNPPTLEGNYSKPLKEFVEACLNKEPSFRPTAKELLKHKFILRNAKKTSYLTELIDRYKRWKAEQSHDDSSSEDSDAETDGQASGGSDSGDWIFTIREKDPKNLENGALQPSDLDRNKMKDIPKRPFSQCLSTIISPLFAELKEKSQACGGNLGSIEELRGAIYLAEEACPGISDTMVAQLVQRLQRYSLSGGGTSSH
Sequence of G protein-coupled receptor kinase 4 (Homo sapiens) (P32298 whole entry, looked up): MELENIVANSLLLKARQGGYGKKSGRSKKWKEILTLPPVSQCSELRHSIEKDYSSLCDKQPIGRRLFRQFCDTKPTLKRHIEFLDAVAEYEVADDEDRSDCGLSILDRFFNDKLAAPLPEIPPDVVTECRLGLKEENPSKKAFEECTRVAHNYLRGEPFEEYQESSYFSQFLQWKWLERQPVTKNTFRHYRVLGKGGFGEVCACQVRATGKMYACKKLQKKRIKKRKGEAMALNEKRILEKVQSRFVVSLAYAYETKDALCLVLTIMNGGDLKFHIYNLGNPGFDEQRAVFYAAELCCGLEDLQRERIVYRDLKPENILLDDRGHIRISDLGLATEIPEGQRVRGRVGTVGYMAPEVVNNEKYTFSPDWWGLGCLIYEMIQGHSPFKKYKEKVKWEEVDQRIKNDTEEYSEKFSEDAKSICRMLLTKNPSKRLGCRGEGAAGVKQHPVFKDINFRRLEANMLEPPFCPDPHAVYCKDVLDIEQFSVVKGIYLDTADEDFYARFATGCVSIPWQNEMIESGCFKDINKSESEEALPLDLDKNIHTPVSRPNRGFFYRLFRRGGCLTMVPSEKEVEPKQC
Sequence of Mast/stem cell growth factor receptor Kit (Homo sapiens), P10721 [D816H] (P10721 whole entry D816H): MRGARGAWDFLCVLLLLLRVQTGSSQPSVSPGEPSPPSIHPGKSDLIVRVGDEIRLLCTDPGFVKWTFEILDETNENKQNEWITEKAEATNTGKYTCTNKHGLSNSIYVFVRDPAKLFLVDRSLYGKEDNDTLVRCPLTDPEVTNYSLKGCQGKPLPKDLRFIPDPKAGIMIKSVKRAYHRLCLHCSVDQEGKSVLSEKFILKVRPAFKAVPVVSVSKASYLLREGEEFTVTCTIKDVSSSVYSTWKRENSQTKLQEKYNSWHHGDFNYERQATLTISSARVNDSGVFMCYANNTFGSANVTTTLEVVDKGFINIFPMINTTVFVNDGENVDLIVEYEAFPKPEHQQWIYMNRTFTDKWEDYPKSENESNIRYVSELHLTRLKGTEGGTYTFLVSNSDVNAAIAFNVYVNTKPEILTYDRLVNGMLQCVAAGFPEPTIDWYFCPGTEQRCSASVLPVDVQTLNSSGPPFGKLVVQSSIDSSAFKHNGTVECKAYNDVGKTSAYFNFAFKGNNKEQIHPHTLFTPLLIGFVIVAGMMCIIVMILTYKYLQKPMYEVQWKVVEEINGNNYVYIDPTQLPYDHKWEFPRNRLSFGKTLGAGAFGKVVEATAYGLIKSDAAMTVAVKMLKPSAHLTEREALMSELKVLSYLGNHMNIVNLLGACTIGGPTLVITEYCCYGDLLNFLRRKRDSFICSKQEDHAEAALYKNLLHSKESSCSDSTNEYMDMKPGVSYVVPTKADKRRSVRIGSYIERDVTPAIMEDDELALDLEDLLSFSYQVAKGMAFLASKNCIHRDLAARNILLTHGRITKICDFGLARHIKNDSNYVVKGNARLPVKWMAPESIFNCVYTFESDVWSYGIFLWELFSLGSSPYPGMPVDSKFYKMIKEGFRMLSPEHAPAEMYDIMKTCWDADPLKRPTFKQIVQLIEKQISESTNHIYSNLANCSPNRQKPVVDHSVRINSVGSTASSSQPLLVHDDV
Sequence of Serine/threonine-protein kinase PAK 6 (Homo sapiens) (Q9NQU5 whole entry, looked up): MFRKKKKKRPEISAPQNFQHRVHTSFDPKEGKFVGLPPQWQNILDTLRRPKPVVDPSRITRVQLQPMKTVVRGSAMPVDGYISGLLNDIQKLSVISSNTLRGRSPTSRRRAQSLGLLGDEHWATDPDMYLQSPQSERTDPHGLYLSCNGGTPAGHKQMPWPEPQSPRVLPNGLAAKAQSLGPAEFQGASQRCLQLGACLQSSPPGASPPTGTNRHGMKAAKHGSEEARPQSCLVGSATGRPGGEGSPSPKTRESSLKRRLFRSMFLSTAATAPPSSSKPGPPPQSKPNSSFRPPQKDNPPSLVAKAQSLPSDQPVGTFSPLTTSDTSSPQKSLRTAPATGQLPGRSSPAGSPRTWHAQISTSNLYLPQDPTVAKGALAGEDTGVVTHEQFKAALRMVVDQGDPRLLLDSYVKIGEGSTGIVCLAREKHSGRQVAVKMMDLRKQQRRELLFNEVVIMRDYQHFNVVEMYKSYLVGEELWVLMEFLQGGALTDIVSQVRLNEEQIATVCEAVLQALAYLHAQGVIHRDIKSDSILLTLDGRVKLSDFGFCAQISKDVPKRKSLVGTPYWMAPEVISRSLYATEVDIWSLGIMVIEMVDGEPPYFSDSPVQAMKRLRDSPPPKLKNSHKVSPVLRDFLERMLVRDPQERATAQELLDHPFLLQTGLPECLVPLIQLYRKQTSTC
Sequence of Mast/stem cell growth factor receptor Kit (Homo sapiens), P10721 [D816V] (P10721 whole entry D816V, canonical isoform): as the sequence (P10721 whole entry D816H) above, with H816V counted along it
Sequence of MAP kinase-activated protein kinase 2 (P49137 whole entry, looked up): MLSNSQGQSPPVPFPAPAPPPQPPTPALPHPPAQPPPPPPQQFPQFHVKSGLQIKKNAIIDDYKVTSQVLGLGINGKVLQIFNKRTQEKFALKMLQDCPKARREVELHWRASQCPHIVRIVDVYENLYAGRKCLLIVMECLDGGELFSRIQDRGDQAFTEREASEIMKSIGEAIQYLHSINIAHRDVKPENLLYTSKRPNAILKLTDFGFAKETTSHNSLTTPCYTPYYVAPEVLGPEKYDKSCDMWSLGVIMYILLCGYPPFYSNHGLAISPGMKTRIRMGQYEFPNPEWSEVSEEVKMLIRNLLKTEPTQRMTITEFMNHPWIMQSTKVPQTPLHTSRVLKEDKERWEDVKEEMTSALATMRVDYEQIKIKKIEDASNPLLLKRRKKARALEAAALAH

## COc1cc(N(C)c2ccnc3ccc(C(F)(F)F)cc23)cc(OC)c1OC
[1]
  % binding: 95%

## COCC(=O)NC/C=C/c1ccc2ncnc(Nc3ccc(Oc4ccc(C)nc4)c(C)c3)c2c1 [CP-724714]
[2]
  % of control: 86%

## Nc1cnc(N2CCc3cc(S(=O)(=O)Nc4c(F)cc(Cl)cc4F)cc(N4CCCC4=O)c32)nc1 [TP-020n]
[3]
  % of control: 100%

## Cn1cc(-n2cnc3c(NCc4nc5cc(Cl)c(Cl)cc5[nH]4)nc(N4CCOCC4)nc32)cn1
[4]
  % of inhibition: -27%
[5]
  % of control: -0.292%
[6]
  % of inhibition: -19.5%

## Cc1cc([C@@H](C)Nc2ccccc2C(=O)O)c2nc(N3CCOCC3)cc(=O)n2c1 [AZD-6482]
[7]
  % of control: 88%

## COc1cc(Nc2nc(C)cc(-c3cnn4nc(OC)ccc34)n2)cc(C(F)(F)F)c1
[8]
  % of control: 100%

## C=CC(=O)Nc1cccc(C(=O)Nc2ccc(Nc3cc(-c4[nH]c(SC)nc4C)ccn3)cc2)c1
[9]; at 1 µM
  % of control: 101%
[9]; at 5 µM
  % of control: 97%

## N#Cc1cccc(-c2c[nH]c3ncnc(N4CCOCC4)c23)c1
[10]
  % of control: 66%

## CNC(=O)Nc1ccc(-c2nc(N3CC4CCC(C3)O4)c3cnn(C4CCC5(CC4)OCCO5)c3n2)cc1
[11]
  % of control: 93%

## O[C@H]1CC[C@H](Nc2ncc3nc(Nc4c(F)cc(F)cc4F)n([C@H]4CCOC4)c3n2)CC1
[12]
  % of control: 71%

## CC[C@@H]1[C@H](F)C(=O)N[C@@H]1COc1nccc2cc(C(N)=O)c(OC)cc12 [ZIMLOVISERTIB]
[13]; at 0.01 µM
  % of inhibition: 3.4%
[13]; at 0.04 µM
  % of inhibition: -19.7%
[13]; at 0.2 µM
  % of inhibition: -5.9%
[13]; at 1 µM
  % of inhibition: 6%
[13]; at 5 µM
  % of inhibition: 5.4%
[14]; at 0.01 µM
  % of inhibition: -2.4%
[14]; at 0.04 µM
  % of inhibition: 1.2%
[14]; at 0.2 µM
  % of inhibition: -29.5%
[14]; at 1 µM
  % of inhibition: -29%
[14]; at 5 µM
  % of inhibition: 14.7%

## CCN(CC)CCCCNc1ncc2cc(-c3cc(OC)cc(OC)c3)c(NC(=O)NC(C)(C)C)nc2n1
[15]
  % of control: 100%

## CN(C)C/C=C/C(=O)Nc1ccc(C(=O)N2CCCC(Nc3ncc(Cl)c(-c4c[nH]c5ccccc45)n3)C2)cc1 (stereo not given)
[16]
  % of control: 80%

Source: ChEMBL document CHEMBL5465560, “Selectivity Literature for EUbOPEN Chemogenomic Library” (2024)
